The values below are quoted from earlier work in patent US20140256761A1, “ENHANCED ARTEMISININ-BASED COMBINATION THERAPY FOR TREATING PARASITIC MEDIATED DISEASE” (priority 2009, published 2014).

The conditions of data set [1]: in water or oils.
The conditions of data set [2]: in vivo.
For data set [3] the following is noted: generally considered.

`C[C@@H]1CC[C@H]2[C@@H](C)C(=O)O[C@@H]3O[C@@]4(C)CC[C@@H]1[C@]32OO4` [artemisinin]: the solubility entry in data set [1] was “sparingly soluble”.

In the case of `CO[C@H]1O[C@@H]2O[C@@]3(C)CC[C@H]4[C@H](C)CC[C@@H]([C@H]1C)[C@@]24OO3` [artemether, (+)-(3-alpha,5a-beta,6-beta,8a-beta, 9-alpha,12-beta,12aR)-decahydro-10-methoxy-3,6,9-trimethyl-3,12-epoxy-12H-pyrano(4,3-j)-1,2-benzodioxepin], the solubility result in data set [1] is “lipid-soluble”.

Consider `COc1cc(NC(C)CCCN)c2ncccc2c1` (centres unmarked) [Primaquine], for which the “absorption from the gastro-intestinal tract” value in data set [2] is on record as “readily absorbed”.

For the compound `COc1ccc2cc3[n+](cc2c1OC)CCc1cc2c(cc1-3)OCO2` [Berberine, (5,6-Dihydro-9,10-dimethoxybenzo[g]-1,3-benzodioxolo[5,6-a]quinolizinium)], the toxicity entry in data set [3] is reported as “non-toxic”.

In the case of `C[C@H]1[C@H](OC(=O)CCC(=O)O)O[C@@H]2O[C@@]3(C)CC[C@H]4[C@H](C)CC[C@@H]1[C@@]24OO3` [artesunate, 3R,5aS,6R,8aS,9R,10S,12R,12aR)-Decahydro-3,6,9-trimethyl-3,12-epoxy-12H-pyrano(4,3-j)-1,2-benzodioxepin-10-ol hydrogen succinate], the solubility entry in data set [1] is listed as “water-soluble”.
